Positions of bridges follow the written chain, without caps; N, C: chain ends. Non-standard residues stand in square brackets, D forms with d. Residues, ends and D or L forms follow the SMILES beside them. Hyp = O=C(O)[C@@H]1C[C@@H](O)CN1; R8 = C=CCCCCCC[C@@](C)(N)C(=O)O; hLeu = CC(C)CC[C@H](N)C(=O)O; S5 = C=CCCC[C@](C)(N)C(=O)O; AEA = NCCOCC(=O)O
Legend:
[1] = α-Helicity by CD spectroscopy; assay type: physicochemical; settings: PB pH 7.2, 10-50 µM peptide, 20°C, calculated from [θ]222
Protocol: Peptides were dissolved in PB (pH = 7.2) to concentrations ranging from 10 to 50 µM. CD spectra were obtained on a Jasco J-715 spectropolarimeter at 20°C. The spectra were collected using a 0.1 cm path length quartz cuvette with the following measurement parameters: wavelength, 185-255 nm; step resolution, 0.1 nm; speed, 20 nm/min; accumulations, 6; bandwidth, 1 nm. The helical content of each peptide was calculated as reported previously.

[2] = tested on: HCT-116 orthotopic (rectal mucosa) xenograft; assay: Orthotopic CRC xenograft model; assay type: in vivo, BALB/c nude mice
Protocol: Four-week-old male BALB/c nude mice (15-20 g) were used to establish subcutaneous and orthotopic xenograft models. A total of 5 × 10^6 HCT-116 cells were subcutaneously inoculated into the right flanks of the mice. Tumor volume was calculated using the following formula: V = (L × W^2)/2, where L is the length and W is the width of the tumor nodules measured with a vernier caliper. […] Drugs were intravenously injected into the mice every 2 days for 2 weeks. In addition, the model of orthotopic CRC xenografts was established. Briefly, mice were anesthetized after fasting for 12 h. Subsequently, the distal anal and rectal mucosa were exposed, and transanal injection of HCT-116 cells (5 × 10^6) was performed using a 30 G sterile needle. The injection was given directly into the rectal mucosa. Tumor growth was investigated, and once the tumors reached ~0.5 cm in size, the mice were randomly divided into two groups. The mice were treated every other day for 2 weeks with tail vein injections of either vehicle (saline) or sPMI-HIF2-1 (2 mg/kg). Body weight was measured before saline or drug injection. All mice were euthanized on day 14 following drug treatment, and the tumors were isolated, photographed, weighed, and measured.

circular dichroism = settings: phosphate buffer (PB); pH 7.2; 20 °C; 10-50 uM
HCT116 p53^+/+ cells = assay: Cell viability assay (CCK-8); assay type: cell-based, human
Protocol: (§1) The human colon carcinoma cell line HCT116 p53^+/+ was obtained from the Cell Bank of the Chinese Academy of Sciences (Shanghai, China). HCT116 p53^-/- cells were generously provided by Prof. Vogelstein of Johns Hopkins University. Both cell lines were cultured in McCoy's 5A medium (Gibco, USA) containing 10% FBS, 100 units/ml penicillin, and 100 μg/ml streptomycin at 37 °C in a humidified incubator containing 5% CO2. Cell viability was measured using a Cell Counting Kit-8 (CCK-8) (Dojindo, Kumamoto, Japan) according to the manufacturer's instructions. In brief, the cells (5 × 10^3 cells/well in […] medium) were cultured for 24 h in 96-well microplates in a humidified 5% CO2 incubator at 37 °C and then treated with varying concentrations of compounds or 0.1% DMSO vehicle control.

HCT116 p53^-/- cells = assay: Cell viability assay (CCK-8); assay type: cell-based, human; settings: CCK-8, 72 h incubation, absorbance 450 nm; read-out: IC50 (μM) HCT116 p53^-/-
Protocol: as §1

^25-109MDM2 = target: T1, ^25-109MDM2 (Homo sapiens, UniProt Q00987); assay: FP-based competitive binding assay; settings: MDM2 40 nM, fluorescently tagged p53 peptide 20 nM, PBS pH 7.4, 30 min room temperature; mean of three independent measurements
T1 construct: established using ^25-109MDM2, ^24-108MDMX
Protocol: (§2) An FP-based competitive or binding assay was established using ^25-109MDM2, ^24-108MDMX, and a fluorescently tagged p53-derived peptide as previously described. [34]-[36] For dose-dependent competitive binding experiments, MDM2 or MDMX protein (40 nM) was first incubated with TAMRA-p53 peptide (20 nM) in PBS (pH 7.4) on a Costar 96-well plate, to which a serially diluted solution of test peptide was added to a final volume of 125 μL. After 30 min of incubation at room temperature, the FP values were measured at λex = 530 nm and λem = 580 nm on a Tecan Infinite M1000 plate reader. For binding experiments, FITC-labeled SPMI-HIF2-1 (20 nM) was incubated with different concentrations of MDM2, MDMX, and VHL proteins. Curve fitting was performed using GraphPad Prism software, and Ki values were calculated as described previously. Three replicates and three independent experiments were performed.

^24-108MDMX = target: T2, ^24-108MDMX (Homo sapiens, UniProt O15151); assay: FP-based competitive binding assay; settings: MDMX 40 nM, fluorescently tagged p53 peptide 20 nM, PBS pH 7.4, 30 min room temperature; mean of three independent measurements
T2 construct: ^24-108MDMX, and a fluorescently tagged p53-derived peptide
T2 sequence (O15151 24-108): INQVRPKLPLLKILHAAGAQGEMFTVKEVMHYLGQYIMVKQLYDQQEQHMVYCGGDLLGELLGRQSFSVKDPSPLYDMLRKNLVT
Protocol: as §2

Pharmacokinetic study = assay type: in vivo; settings: mouse, iv, male ICR mice, 1.8 mg/kg single i.v. tail vein, plasma, UPLC-ESI-QqQ-MS, n = 5
Protocol: The peptides (1.8 mg/kg) were individually dosed in mice intravenously via tail vein injection and the blood samples were collected from the orbital venous plexus at 0, 0.5, 1, 2, 4, 6, 10, 24, and 48 h. All blood samples were centrifuged at 3000 rpm for 10 min, and the obtained plasma samples were immediately frozen at -80 °C until use. The standard curve was established as follows: Stock solutions of PMI-HIF1-1 and SPMI-HIF2-1 dissolved in acetonitrile were spiked into control plasma at final concentrations of 4000, 2000, 1000, 500, 250, 125, 62.5, 31.25, 15.625, 7.8125, 3.90625, 1.953125, and 0.9765625 ng/ml. […] Plasma samples (30 μL) were treated with 90 μL acetonitrile for protein precipitation. Then all samples were vortexed for 2 min and centrifuged for 15 min at 13000 rpm and 4°C. The supernatants were analyzed by ultraperformance liquid chromatography-electrospray ionization-tandem triple quadrupole mass spectrometry (UPLC-ESI-QqQ-MS, Shimadzu 8040). The system was equipped with an XBridge BEH C18 column (2.5 μm, 2.1×100 mm; Waters, Milford, MA, USA). The column temperature was set at 35°C. The injection volume was 4 μl. […] The plasma concentration at each time point was calculated from the extracted peak area of the same mass peaks of each peptide using the corresponding standard curve.

CC(=O)N[C@H](C(=O)N[C@@H](CO)C(=O)N[C@@H](Cc1ccccc1)C(=O)N[C@]1(C)CCCCCCC=CCCC[C@@](C)(C(=O)NCCOCC(=O)N[C@@H](CC(C)C)C(=O)N[C@@H](C)C(=O)N2C[C@H](O)C[C@H]2C(=O)N[C@@H](Cc2ccc(O)cc2)C(=O)N[C@@H](CCC(C)C)C(=O)N2CCC[C@H]2C(N)=O)NC(=O)[C@H](CC(C)C)NC(=O)[C@H](CC(C)C)NC(=O)[C@H](C)NC(=O)[C@H](Cc2c[nH]c3ccccc23)NC(=O)[C@H](Cc2ccc(O)cc2)NC(=O)[C@H](CCC(=O)O)NC1=O)[C@@H](C)O [SPMI-HIF2-1] (Ac-TSF[R8]EYWALL[S5][AEA]LA[Hyp]Y[hLeu]P-NH2; staple 4-11)
α-helicity (%) [1]: 37%
body weight ([2]; 2 mg/kg i.v. every 2 days until the 13th day, compared to saline-treated controls): no obvious change in body weight
reduction in tumor weight compared to the control group ([2]; 2 mg/kg i.v. tail vein every 2 days until the 13th day, n = 5 mice/group): 77%
helicity (circular dichroism): 37%
enhancement of IC50 against HCT116 p53^+/+ compared with SPMI2 (HCT116 p53^+/+ cells; CCK-8, 72 h): ~5 fold
IC50 (HCT116 p53^+/+ cells; CCK-8, 72 h incubation, absorbance 450 nm, read-out: IC50 (μM) HCT116 p53^+/+): 6.7 µM
IC50 (HCT116 p53^-/- cells): > 100 µM
Ki (^25-109MDM2): 350 nM
Ki (^24-108MDMX): 530 nM
Cmax (Pharmacokinetic study; mean): 17700 ng/mL
AUC(0-inf) (Pharmacokinetic study): 43900 ng·h/mL
MRT (Pharmacokinetic study): 11.5 h
half-life (Pharmacokinetic study; read-out: half-life (t1/2) (converted)): 9.3 h

Reference: paper PMC9516243, “Design of stapled peptide-based PROTACs for MDM2/MDMX atypical degradation and tumor suppression” (Theranostics, 2022)
